The results in this text go back to patent publication US20040063790A1, “Methods for inhibition of angiogenesis” (The Scripps Research Institute, priority 1996, published 2004).

[ ]: non-standard residue; d: D form.

Experiment [1] relates to αvβ3-expressing CS-1 cells. Put plainly: Inhibition of cell attachment assay. In kind it is cell-based, hamster. As for the experimental part: As one means to determine integrin receptor specificity of the antagonists of this invention, inhibition of cell attachment assays were performed as described below.
Briefly, CS-1 hamster melanoma cells lacking expression of αvβ3 and αvβ5 were first transfected with an plasmid for expressing the […] as previously described by Filardo et al., J. Cell Biol., 130:441-450 (1995). Specificity of potential αvβ3 antagonists was determined by the ability to block the binding of αvβ3-expressing CS-1 cells to VN or laminin coated plates. As an example of a typical assay, the wells were first coated with 10 μg/ml substrate overnight. After rinsing and blocking with 1% heat-denatured BSA in PBS at room temperature for 30 minutes, peptide 85189 (SEQ ID NO: 15) over a concentration range of 0.0001 μM to 100 μM, was separately mixed with CS-1 cells for applying to wells with a cell number of 50, 000 cells/well. After a 10-15 minute incubation at 37° C., the solution containing the cells and peptides was discarded. The number of attached cells was then determined following staining with 1% crystal violet. Cell associated crystal violet was eluted by the addition of 100 microliters (μl) of 10% acetic acid. Cell adhesion was quantified by measuring the optical density of the eluted crystal violet at a wave length of 600 nm.

For experiment [2], the system named is tumor-induced angiogenesis. Put plainly: CAM assay, tumor-induced angiogenesis, intravenous application. It counts as in vivo, chick. To be noted: intravenous injection. As for the experimental part: Angiogenesis was induced in the CAM assay system by direct apposition of a tumor fragment on the CAM. Preparation of the chick embryo CAM was identical to the procedure described above. Instead of a filter paper disk, a 50 milligram (mg) to 55 mg in weight fragment of one of human melanoma tumor M21-L, human lung carcinoma tumor UCLAP-3, human pancreatic carcinoma cell line FG (Cheresh et al., Cell 58:945-953, 1989), or human laryngeal carcinoma cell line HEp3, all of which are αvβ3 negative tumors, was placed on the CAM in an area originally devoid of blood vessels.
The M21-L human melanoma cell line, UCLAP-3 human lung carcinoma cell line, FG pancreatic carcinoma cell line, or HEp3 human laryngeal carcinoma cell line, all αvβ3 negative, were used to grow the solid human tumors on the CAMs of chick embryos. A single cell suspension of 8×10^6 M21-L, UCLAP-3, and FB or 5×10^5 HEp3 cells was first applied to the CAMs in a total volume of 30 μl of sterile HBSS. The windows were sealed with tape and the embryos were incubated for 7 days to allow growth of human tumor lesions. At the end of 7 days, now a 17-day embryo, the tumors were resected from the CAMs and trimmed free of surrounding CAM tissue. […]
The effects of peptide exposure to tumor-induced vasculature in the CAM assay system was also assessed. […]

The next experiment has as its system M21-L melanoma tumor. Briefly: In vivo chimeric mouse:human assay. Set-up: species or system SCID mouse. To be noted: intravenous, FIG. 18. As for the experimental part: An in vivo chimeric mouse:human model was generated by replacing a portion of skin from a SCID mouse with human neonatal foreskin (FIG. 4). After the skin graft was established, the human foreskin was inoculated with carcinoma cells. After a measurable tumor was established, either an αvβ3 antagonist or PBS was injected into the mouse tail vein. Following a 2-3 week period, the tumor was excised and analyzed by weight and histology.
The in vivo chimeric mouse:human model is prepared essentially as described in Yan, et al., J. Clin. Invest., 91:986-996 (1993). Briefly, a 2 cm^2 square area of skin was surgically removed from a SCID mouse (6-8 weeks of age) and replaced with a human foreskin. The mouse was anesthetized and the hair removed from a 5 cm^2 area on each side of the lateral abdominal region by shaving. Two circular graft beds of 2 cm^2 were prepared by removing the full thickness of skin down to the fascia. Full thickness human skin grafts of the same size derived from human neonatal foreskin were placed onto the wound beds and sutured into place. […]
In a procedure similar to that described above for monoclonal antibodies, peptide antagonists of αvβ3 were injected intravenously into the tail vein of SCID mice having measurable M21-L tumors. […] The mean volume and weight of resected tumors following treatment were determined with the results respectively shown in FIGS. 19A and 19B.

In experiment [3] the test system is growth factor-induced corneal angiogenesis. Put plainly: In vivo rabbit eye model assay. To be noted: both vFGF and VEGF stimulated eyes. The text has this:
The effect of anti-αvβ3 antagonists on growth factor-induced angiogenesis can be observed in naturally transparent structures as exemplified by the cornea of the eye. […] Stimulators of angiogenesis, such as bFGF, when applied to the cornea induce the growth of new blood vessels from the rim of the cornea. Antagonists of angiogenesis, applied to the cornea, inhibit the growth of new blood vessels from the rim of the cornea. Thus, the cornea undergoes angiogenesis through an invasion of endothelial cells from the rim of the cornea into the tough collagen-packed corneal tissue which is easily visible. The rabbit eye model assay therefore provides an in vivo model for the direct observation of stimulation and inhibition of angiogenesis following the implantation of compounds directly into the cornea of the eye.
Each experiment consisted of eight rabbits in which one eye received a pellet comprising 100 nanograms (ng) bFGF and the other eye received a pellet comprising 1 microgram (μg) VEGF. The pellets were inserted into the corneal pocket as described above, and the cytokines subsequently stimulated the growth of new blood vessels into the cornea. […] After 7 days, the cornea were evaluated as described above.

In the case of cyclo (RGDfV) [Peptide 66203], the “inhibition of β3-expressing CS-1 cell adhesion to laminin” value in experiment [1] (laminin) was “but not laminin”. In addition, the “inhibition of β3-expressing CS-1 cell adhesion to vitronectin” value in experiment [1] (vitronectin) is given as “inhibited”. In addition, the “inhibition of tumor-induced blood vessel formation” value in experiment [2] is “formation of blood vessels was inhibited”.

Take “cyclo (RADfV) (cyclo(RAD[dF]V); SMILES CC(C)[C@@H]1NC(=O)[C@@H](Cc2ccccc2)NC(=O)[C@H](CC(=O)O)NC(=O)[C@H](C)NC(=O)[C@H](CCCNC(=N)N)NC1=O) [Peptide 69601, reference compound]”: the tumor volume entry in the experiment with M21-L melanoma tumor is reported as “approximately 360 mm^3”. Also, the “corneal blood vessel growth at 7 days” value in experiment [3] is on record as “substantial corneal blood vessel growth”.
